US20240239766A1, “3-AMINO PIPERIDYL SODIUM CHANNEL INHIBITORS” (Genentech, Inc., priority 2021, published 2024)
Structures can show the parent of a compound that is named as a salt.

Molecular target: hNav1.7 (Homo sapiens (Human), UniProt Q15858)
Assay: Patch voltage clamp electrophysiology assay (EP), Syncropatch 384PE, CHO cells expressing Nav1.7
Assay type: cell-based
Conditions: holding potential −50 mV; 7.5 min compound incubation; read-out: EP SP hNav1.7 EVO (IC50)
Source text: Example 101c: Electrophysiological Assay (EP) (In Vitro Assay)
Patch voltage clamp electrophysiology allows for the direct measurement and quantification of block of voltage-gated sodium channels (NaV's), and allows the determination of the time- and voltage-dependence of block which has been interpreted as differential binding to the resting, open, and inactivated states of the sodium channel (Hille, B., Journal of General Physiology (1977), 69: 497-515).
The following voltage clamp electrophysiology studies are performed on representative compounds using cells heterologously expressing Nav1.7 or Nav1.5 channels. cDNAsfor Nav1.7 (NM_002977) and Nav1.5 (AC137587) are stably expressed in Chinese Hamstr Ovary (CHO) cells and CHL (Chinese Hamster Lung) cells respectively. Sodium currents are measured in the whole-cell configuration using Syncropatch 384PE (Nanlon Technologies, Germany). 1NPC®-384 chips with custom medium resistance and single hole mode are used. Internal solution consists of (in mM): […], 10 CsCl, 20 EGTA, and 10 Hepes (pH adjusted to 7.2); and external solution contains (in mM): 60 NMDG, 80 NaCl, 4 KCl, 1 MgCl2, 2 CaCl2), 2 D-Glucose monohydrate, 10 Hepes (pH adjusted to 7.4 with NaOH).
After system flushing, testing compounds are dissolved in external solution containing 0.1% Pluronic F-127. The chip is moved into the measuring head and the instrument primes the chip with external and internal solutions. 10 μl cells are added to the chip from a cell hotel, and a negative pressure of −50 mBar is applied to form a seal. Following treatment with seal enhancer solution and wash-off with external solution, negative pressure of −250 mbar is applied for 1 second to achieve the whole-cell configuration, followed by three washing steps in external solution. 20 μl of compounds is added to 40 μl in each well (1:3 dilution of compounds), and after mixing, 20 μl is removed so the volume is retained at 40 ul. After approximately 13 minutes recordings, 20 μl/well of 2 uM TTX, or 333 uM Tetracaine (for Nav1.5) is added to achieve full block.
For voltage protocol, an holding potential of −50 mV is applied during the whole experiment. A depolarizing step is applied to −10 mV for 10 ms, followed by a hyperpolarization step to −150 mV for 20 ms to allow channel recovery from inactivation. A second depolarizing step is applied from −150 mV to −10 mV for 10 ms, where currents are measured to derive blocking effects of compounds. Inhibition is determined based on 7.5 min of compound incubation.

hNav1.7, sequence (Q15858 other isoform, or with tags, fused parts or gaps): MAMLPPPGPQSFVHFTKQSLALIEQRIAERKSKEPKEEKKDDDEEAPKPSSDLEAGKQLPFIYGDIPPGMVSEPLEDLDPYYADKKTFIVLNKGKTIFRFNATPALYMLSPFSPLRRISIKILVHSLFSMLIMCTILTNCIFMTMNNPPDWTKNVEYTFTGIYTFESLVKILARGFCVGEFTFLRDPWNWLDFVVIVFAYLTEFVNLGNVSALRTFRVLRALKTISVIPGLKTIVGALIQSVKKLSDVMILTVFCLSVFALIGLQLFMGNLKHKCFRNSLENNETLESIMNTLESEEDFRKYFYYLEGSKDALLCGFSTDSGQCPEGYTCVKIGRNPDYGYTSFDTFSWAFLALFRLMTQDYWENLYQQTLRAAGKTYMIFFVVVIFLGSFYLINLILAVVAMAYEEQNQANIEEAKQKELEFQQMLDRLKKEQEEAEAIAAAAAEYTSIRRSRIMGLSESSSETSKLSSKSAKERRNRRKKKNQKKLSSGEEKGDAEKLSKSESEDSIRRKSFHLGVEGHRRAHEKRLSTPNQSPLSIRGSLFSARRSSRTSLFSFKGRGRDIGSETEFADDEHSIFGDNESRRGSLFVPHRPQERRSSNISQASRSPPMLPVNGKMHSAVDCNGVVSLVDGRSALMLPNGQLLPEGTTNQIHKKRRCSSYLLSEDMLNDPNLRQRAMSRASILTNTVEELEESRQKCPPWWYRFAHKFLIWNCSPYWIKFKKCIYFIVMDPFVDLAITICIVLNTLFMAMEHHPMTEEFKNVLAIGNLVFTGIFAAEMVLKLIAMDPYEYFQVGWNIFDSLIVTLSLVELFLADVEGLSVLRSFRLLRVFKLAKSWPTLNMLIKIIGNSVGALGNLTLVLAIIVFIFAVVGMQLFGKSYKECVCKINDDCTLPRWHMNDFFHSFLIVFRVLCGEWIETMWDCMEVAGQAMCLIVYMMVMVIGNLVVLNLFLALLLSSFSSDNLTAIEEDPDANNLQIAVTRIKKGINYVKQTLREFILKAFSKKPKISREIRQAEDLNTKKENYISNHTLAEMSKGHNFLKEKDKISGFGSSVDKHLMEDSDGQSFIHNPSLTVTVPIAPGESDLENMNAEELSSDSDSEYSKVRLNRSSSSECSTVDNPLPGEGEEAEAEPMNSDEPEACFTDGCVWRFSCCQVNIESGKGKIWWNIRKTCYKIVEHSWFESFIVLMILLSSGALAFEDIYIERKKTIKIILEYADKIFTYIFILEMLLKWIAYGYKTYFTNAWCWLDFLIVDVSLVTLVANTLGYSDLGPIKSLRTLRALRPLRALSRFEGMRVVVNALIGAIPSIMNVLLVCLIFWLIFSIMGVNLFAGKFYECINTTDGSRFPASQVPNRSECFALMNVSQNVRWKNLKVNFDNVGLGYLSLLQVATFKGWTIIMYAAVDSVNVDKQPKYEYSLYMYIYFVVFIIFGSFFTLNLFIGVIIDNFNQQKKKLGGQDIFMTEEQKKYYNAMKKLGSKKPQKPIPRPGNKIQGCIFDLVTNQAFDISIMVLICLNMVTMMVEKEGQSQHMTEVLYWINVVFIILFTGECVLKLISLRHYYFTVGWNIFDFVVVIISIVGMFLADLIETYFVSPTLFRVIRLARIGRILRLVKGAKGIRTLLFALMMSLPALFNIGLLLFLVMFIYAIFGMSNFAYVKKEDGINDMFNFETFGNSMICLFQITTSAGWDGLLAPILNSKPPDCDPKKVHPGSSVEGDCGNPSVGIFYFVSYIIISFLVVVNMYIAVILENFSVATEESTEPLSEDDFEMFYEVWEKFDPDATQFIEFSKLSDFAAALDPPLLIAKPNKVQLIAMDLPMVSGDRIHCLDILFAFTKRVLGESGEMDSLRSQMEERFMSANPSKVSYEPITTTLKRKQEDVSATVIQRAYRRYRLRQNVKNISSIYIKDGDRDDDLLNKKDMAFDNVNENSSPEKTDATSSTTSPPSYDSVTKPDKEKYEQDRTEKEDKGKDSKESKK

Row | SMILES | IC50
1 | CN1CC[C@H](N(C)[C@@]2(CCc3cccc(C(F)(F)F)c3)CCCN(c3cc(F)c(S(=O)(=O)Nc4ccncn4)c(F)c3)C2)C1 (single isomer, unassigned) [Example 45] | 1.69 nM
2 | CN(C)[C@@]1(CCc2ccc(C(F)(F)F)c(Cl)c2)CCCN(c2cc(F)c(S(=O)(=O)Nc3ccncn3)c(F)c2)C1 (single isomer, unassigned) [Example 50] | 504 nM
3 | CN(C)[C@]1(CCc2ccc(C(F)(F)F)c(Cl)c2)CCCN(c2cc(F)c(S(=O)(=O)Nc3ccncn3)c(F)c2)C1 (single isomer, unassigned) [Example 51] | 1.03 nM
4 | CN(C)[C@@]1(CCc2cccc(C(F)(F)F)c2)CCCN(c2cc(F)c(S(=O)(=O)Nc3ncccn3)c(F)c2)C1 (single isomer, unassigned) [Example 52] | 569 nM
5 | CN(C)[C@]1(CCc2cccc(C(F)(F)F)c2)CCCN(c2cc(F)c(S(=O)(=O)Nc3ncccn3)c(F)c2)C1 (single isomer, unassigned) [Example 53] | 9.23 nM
6 | CN(C)[C@@]1(CCc2ccc(Cl)c(C(F)(F)F)c2)CCCN(c2cc(F)c(S(=O)(=O)Nc3ccncn3)c(F)c2)C1 (single isomer, unassigned) [Example 54] | 362 nM
7 | CN(C)[C@]1(CCc2ccc(Cl)c(C(F)(F)F)c2)CCCN(c2cc(F)c(S(=O)(=O)Nc3ccncn3)c(F)c2)C1 (single isomer, unassigned) [Example 55, formate] | 0.879 nM
8 | CN(C)[C@@]1(CCc2ccc(C(F)(F)F)cc2Cl)CCCN(c2cc(F)c(S(=O)(=O)Nc3ccncn3)c(F)c2)C1 (single isomer, unassigned) [Example 56] | 353 nM
9 | CN(C)[C@]1(CCc2ccc(C(F)(F)F)cc2Cl)CCCN(c2cc(F)c(S(=O)(=O)Nc3ccncn3)c(F)c2)C1 (single isomer, unassigned) [Example 57] | 5.04 nM
10 | CN(C)[C@@]1(CCc2cccc(C(F)(F)F)c2)CCCN(c2cc(F)c(S(=O)(=O)Nc3ccon3)c(F)c2)C1 (single isomer, unassigned) [Example 58] | 10000 nM
11 | CN(C)[C@]1(CCc2cccc(C(F)(F)F)c2)CCCN(c2cc(F)c(S(=O)(=O)Nc3ccon3)c(F)c2)C1 (single isomer, unassigned) [Example 59] | 16 nM
12 | CN(CCO)[C@@]1(CCc2cccc(C(F)(F)F)c2)CCCN(c2cc(F)c(S(=O)(=O)Nc3ccncn3)c(F)c2)C1 (single isomer, unassigned) [Example 60] | 138 nM
13 | CN(CCO)[C@]1(CCc2cccc(C(F)(F)F)c2)CCCN(c2cc(F)c(S(=O)(=O)Nc3ccncn3)c(F)c2)C1 (single isomer, unassigned) [Example 61] | 2.14 nM
14 | Cc1cc(N2CCC[C@](CCc3cccc(C(F)(F)F)c3)(N(C)C)C2)cc(C)c1S(=O)(=O)Nc1ccncn1 (single isomer, unassigned) [Example 62, formate] | 8.59 nM
15 | Cc1cc(N2CCC[C@@](CCc3cccc(C(F)(F)F)c3)(N(C)C)C2)cc(C)c1S(=O)(=O)Nc1ccncn1 (single isomer, unassigned) [Example 63, formate] | 177 nM
16 | CN(C)[C@@]1(CCc2cccc(C(F)(F)F)c2)CCCN(c2cc(Cl)c(S(=O)(=O)Nc3ccncn3)c(Cl)c2)C1 (single isomer, unassigned) [Example 64] | 1.54 nM
17 | CN(C)[C@]1(CCc2cccc(C(F)(F)F)c2)CCCN(c2cc(Cl)c(S(=O)(=O)Nc3ccncn3)c(Cl)c2)C1 (single isomer, unassigned) [Example 65] | 69.4 nM
18 | Cc1cc(N2CCC[C@](CCc3cccc(C(F)(F)F)c3)(N(C)C)C2)cc(Cl)c1S(=O)(=O)Nc1ccncn1 (single isomer, unassigned) [Example 66, formate] | 501 nM
19 | Cc1cc(N2CCC[C@@](CCc3cccc(C(F)(F)F)c3)(N(C)C)C2)cc(Cl)c1S(=O)(=O)Nc1ccncn1 (single isomer, unassigned) [Example 67, formate] | 2.4 nM
20 | CN(C)[C@@]1(CCc2c(Cl)cccc2Cl)CCCN(c2cc(F)c(S(=O)(=O)Nc3ccncn3)c(F)c2)C1 (single isomer, unassigned) [Example 68, formate] | 3140 nM
21 | CN(C)[C@]1(CCc2c(Cl)cccc2Cl)CCCN(c2cc(F)c(S(=O)(=O)Nc3ccncn3)c(F)c2)C1 (single isomer, unassigned) [Example 69, formate] | 27.7 nM

Row | SMILES | IC50
22 | CN(C)[C@@]1(CCc2cccc(C(F)(F)F)c2)CCCN(c2ccc(S(=O)(=O)Nc3ccncn3)c(Cl)c2)C1 (single isomer, unassigned) [Example 70] | 4.24 nM
23 | CN(C)[C@]1(CCc2cccc(C(F)(F)F)c2)CCCN(c2ccc(S(=O)(=O)Nc3ccncn3)c(Cl)c2)C1 (single isomer, unassigned) [Example 71, formate] | 560 nM
24 | Cc1cc(N2CCC[C@](CCc3cccc(C(F)(F)F)c3)(N(C)C)C2)ccc1S(=O)(=O)Nc1ccncn1 (single isomer, unassigned) [Example 72, formate] | 9.2 nM
25 | Cc1cc(N2CCC[C@@](CCc3cccc(C(F)(F)F)c3)(N(C)C)C2)ccc1S(=O)(=O)Nc1ccncn1 (single isomer, unassigned) [Example 73, formate] | 673 nM
26 | CN(C)[C@]1(CCc2cccc(C(F)(F)F)c2)CN(c2cc(F)c(S(=O)(=O)Nc3ccncn3)c(F)c2)CC[C@H]1O (single isomer, unassigned) [Example 74, formate] | 1010 nM
27 | CN(C)[C@@]1(CCc2cccc(C(F)(F)F)c2)CN(c2cc(F)c(S(=O)(=O)Nc3ccncn3)c(F)c2)CC[C@@H]1O (single isomer, unassigned) [Example 75, formate] | 4.48 nM
28 | CN(C)[C@]1(CCc2cccc(C(F)(F)F)c2)CN(c2cc(F)c(S(=O)(=O)Nc3ccncn3)c(F)c2)CC[C@@H]1O (single isomer, unassigned) [Example 76, formate] | 30.8 nM
29 | CN(C)[C@@]1(CCc2cccc(C(F)(F)F)c2)CN(c2cc(F)c(S(=O)(=O)Nc3ccncn3)c(F)c2)CC[C@H]1O (single isomer, unassigned) [Example 77, formate] | 2.55 nM
30 | CCN(C)[C@@]1(CCc2cccc(C(F)(F)F)c2)CCCN(c2cc(F)c(S(=O)(=O)Nc3ccncn3)c(F)c2)C1 (single isomer, unassigned) [Example 78] | 974 nM
31 | CCN(C)[C@]1(CCc2cccc(C(F)(F)F)c2)CCCN(c2cc(F)c(S(=O)(=O)Nc3ccncn3)c(F)c2)C1 (single isomer, unassigned) [Example 79, formate] | 7.56 nM
32 | CN([C@H]1CCOC1)[C@@]1(CCc2cccc(C(F)(F)F)c2)CCCN(c2cc(F)c(S(=O)(=O)Nc3ccncn3)c(F)c2)C1 (single isomer, unassigned) [Example 80] | 283 nM
33 | CN([C@@H]1CCOC1)[C@]1(CCc2cccc(C(F)(F)F)c2)CCCN(c2cc(F)c(S(=O)(=O)Nc3ccncn3)c(F)c2)C1 (single isomer, unassigned) [Example 81] | 0.681 nM
34 | CN([C@@H]1CCOC1)[C@@]1(CCc2cccc(C(F)(F)F)c2)CCCN(c2cc(F)c(S(=O)(=O)Nc3ccncn3)c(F)c2)C1 (single isomer, unassigned) [Example 82] | 657 nM
35 | CN([C@H]1CCOC1)[C@]1(CCc2cccc(C(F)(F)F)c2)CCCN(c2cc(F)c(S(=O)(=O)Nc3ccncn3)c(F)c2)C1 (single isomer, unassigned) [Example 83] | 1.68 nM
36 | Cc1ccc(CC[C@]2(N(C)C)CCCN(c3cc(F)c(S(=O)(=O)Nc4ccncn4)c(F)c3)C2)cc1C(F)(F)F (single isomer, unassigned) [Example 84, formate] | 2.84 nM
37 | Cc1ccc(CC[C@@]2(N(C)C)CCCN(c3cc(F)c(S(=O)(=O)Nc4ccncn4)c(F)c3)C2)cc1C(F)(F)F (single isomer, unassigned) [Example 85] | 250 nM
38 | CN(C)[C@@]1(CCc2ccc(C3CC3)c(C(F)(F)F)c2)CCCN(c2cc(F)c(S(=O)(=O)Nc3ccncn3)c(F)c2)C1 (single isomer, unassigned) [Example 86] | 3.78 nM
39 | CN(C)[C@]1(CCc2ccc(C3CC3)c(C(F)(F)F)c2)CCCN(c2cc(F)c(S(=O)(=O)Nc3ccncn3)c(F)c2)C1 (single isomer, unassigned) [Example 87] | 682 nM
40 | CN(C)[C@@]1(CCc2cccc(C3CC3)c2)CCCN(c2cc(F)c(S(=O)(=O)Nc3ccncn3)c(F)c2)C1 (single isomer, unassigned) [Example 88, formate] | 3.29 nM
41 | CN(C)[C@]1(CCc2cccc(C3CC3)c2)CCCN(c2cc(F)c(S(=O)(=O)Nc3ccncn3)c(F)c2)C1 (single isomer, unassigned) [Example 89, formate] | 567 nM
